In patent publication US12383545B1, “Treatment of migraine” (priority 2018, dated 2025):
Several values for one entry are separate records, joined by “and”; a condition that tells them apart may be missing. Equal entries are not always repeated.

Test system: participants with episodic migraine
Assay: Study A: phase 3 randomized double-blind placebo-controlled 12-week trial, eDiary efficacy (monthly migraine days, headache days, acute medication use days, responder rates)
Format: in vivo, human
Settings: for Change from baseline in mean monthly acute medication use days, LS mean change (SE) / Change from baseline in mean monthly headache days, LS mean change (SE) / Change from baseline in mean monthly migraine days, LS mean change (SE) / Mean monthly acute medication use days, LSMD vs. placebo (95% CI) / Mean monthly headache days, LSMD vs. placebo (95% CI) / Mean monthly migraine days, LSMD vs. placebo (95% CI): across 12-week treatment period; for Change from baseline in mean monthly acute medication use days, LS mean change (SE) / Change from baseline in mean monthly headache days, LS mean change (SE) / Change from baseline in mean monthly migraine days, LS mean change (SE) / Mean monthly acute medication use days, LSMD vs. placebo (95% CI) / Mean monthly headache days, LSMD vs. placebo (95% CI) / Mean monthly migraine days, LSMD vs. placebo (95% CI) / ≥50% reduction in 3-month average of monthly migraine days, odds ratio vs. placebo (95% CI) / ≥50% reduction in 3-month average of monthly migraine days, responder n (%): mITT; for decrease in mean monthly headache days / decrease in monthly migraine days: 12 weeks; for decrease in mean monthly headache days / decrease in monthly migraine days / decrease in mean monthly acute medication use days: given as decrease; for decrease in mean monthly acute medication use days: across 12 weeks; for proportion of participants who reported a migraine day: first full day after study drug administration; for LS mean change from baseline in mean headache days / LS mean reduction from baseline in mean cumulative headache hours: first treatment period; for LS mean change from baseline in acute medication use days / LS mean change from baseline in moderate/severe headache days: first treatment period (weeks 1-4); for Mean change from baseline in weekly migraine days: first week of treatment; for odds ratio vs placebo for reporting a migraine: post dose day 1
Procedure: Study A: A phase 3, multicenter, randomized, double-blind, placebo-controlled, parallel-group study was conducted to evaluate the efficacy, safety, and tolerability of oral atogepant for the prevention of migraine in participants with episodic migraine (EM).
This study comprised a 4-week screening and baseline period, a 12-week double-blind treatment period, and a 4-week follow-up period. The total study duration was 20 weeks.
Adults 18 to 80 years of age with 4 to 14 migraine days per month in the 3 months prior to visit 1, and 4 to 14 migraine days during the 28-day baseline period per electronic Diary, were allowed to enroll. Inclusion criteria included at least a 1-year history of migraine with or without aura consistent with a diagnosis, diagnosed as specified in the International Classification of Headache Disorders, 3rd edition, version (ICHD-3), and the age of the participant at the time of migraine onset was <50 years. Exclusion criteria included a history of migraine accompanied by diplopia or decreased level of consciousness or retinal migraine; a current diagnosis of chronic migraine, new persistent daily headache, trigeminal autonomic cephalgia (e.g., cluster headache), or painful cranial neuropathy as defined by ICHD-3, or if they averaged 15 or more migraine days per month across the 3 months prior to Visit 1 or during the 28-day baseline period; a history of an inadequate response to >4 medications (2 of which have different mechanisms of action) prescribed for the treatment of migraine; and participants with clinically significant hematologic, endocrine, cardiovascular, pulmonary, renal, hepatic, gastrointestinal, or neurologic disease. Use of opioids or barbiturate on more than 2 days per month, triptans or ergots on 10 or more days per month, or simple analgesics (e.g., aspirin, non-steroidal anti-inflammatory drugs, acetaminophen) on 15 or more days per month in the 3 months prior to Visit 1 or during the 28-day baseline period were also excluded. Use of barbiturates was also excluded 30 days prior to screening and throughout the duration of the trial.
Randomization was stratified based on prior exposure (yes/no) to a migraine prevention medication with proven efficacy, such as antiepileptics, tricyclic antidepressants, beta-blockers, calcium channel blocker, angiotensin receptor blocker or converting enzyme inhibitor, or serotonin-norepinephrine reuptake inhibitors. Approximately 70% of randomized participants took at least one prior migraine prevention medication with proven efficacy. Participants were not on concurrent medication during the study.
A total of 910 patients were randomized 1:1:1:1 to one of the four treatment groups (10 mg QD, 30 mg QD, 60 mg QD, or placebo). Efficacy analyses were based on the Modified Intent-to-Treat Population (mITT) of 873 patients.
All participants were instructed to take trial treatment orally at approximately the same time once daily for 12 weeks. To maintain the blinding, all participants took 3 tablets of trial treatment provided in identical blister cards: placebo (placebo 10 mg/placebo 30 mg/placebo 60 mg), atogepant 10 mg (atogepant 10 mg/placebo 30 mg/placebo 60 mg), atogepant 30 mg (placebo 10 mg, atogepant 30 mg, placebo 60 mg), and atogepant 60 mg (placebo 10 mg/placebo 30 mg/atogepant 60 mg). Participants, site personnel, and trial sponsor personnel were blinded to the treatment assignment. Tablet formulations for CGRP compounds are described, for example, in U.S. Pat. No. 10,117,936.
Participants were allowed to take acute treatments for migraine which included triptans, ergot derivatives, opioids, acetaminophen, non-steroidal anti-inflammatory drugs, and antiemetic agents. Participants were not allowed to take any preventive treatments for migraine 30 days prior to visit 1 and throughout the trial.
Efficacy assessments were recorded by the participant in an electronic diary at home or via eTablet at the trial site during clinic visits. […]

[1] = range across atogepant 10, 30, 60 mg groups

C[C@@H]1[C@H](c2c(F)ccc(F)c2F)C[C@H](NC(=O)c2cnc3c(c2)C[C@@]2(C3)C(=O)Nc3ncccc32)C(=O)N1CC(F)(F)F [atogepant]
100% reduction in 3-month average of monthly migraine days, responder n (%) (10 mg QD): 17 (7.9) % | ≥25% reduction in 3-month average of monthly migraine days, responder n (%) (10 mg QD): 73.4% | ≥75 reduction in 3-month average of monthly migraine days, responder n (%) (10 mg QD): 30.4% | Change from baseline in mean monthly acute medication use days, LS mean change (SE) (10 mg QD): -3.66 days | Change from baseline in mean monthly headache days, LS mean change (SE) (10 mg QD): -3.94 days | Change from baseline in mean monthly migraine days, LS mean change (SE) (10 mg QD): -3.69 days | Mean monthly acute medication use days, LSMD vs. placebo (95% CI) (10 mg QD): -1.31 days | Mean monthly headache days, LSMD vs. placebo (95% CI) (10 mg QD): -1.42 days | Mean monthly migraine days, LSMD vs. placebo (95% CI) (10 mg QD): -1.21 days | ≥50% reduction in 3-month average of monthly migraine days, odds ratio vs. placebo (95% CI) (10 mg QD): 3.06 | ≥50% reduction in 3-month average of monthly migraine days, responder n (%) (10 mg QD): 55.6% | ≥50% reduction in 3-month average of monthly migraine days, responder n (%) (10 mg QD, listed as Atogepant): (55.6) % | decrease in mean monthly headache days (10 mg): 3.94 days | decrease in monthly migraine days (10 mg): 3.69 days | decrease in mean monthly acute medication use days (10 mg): 3.66 days | proportion of participants who reported a migraine day (10 mg): 14.1% | LS mean change from baseline in mean headache days (10 mg): −3.2 | LS mean reduction from baseline in mean cumulative headache hours (10 mg): -23.3 h | LS mean change from baseline in acute medication use days (10 mg): −3.3 | LS mean change from baseline in moderate/severe headache days (10 mg): −3.0 | Mean change from baseline in weekly migraine days (10 mg): −0.77 | odds ratio vs placebo for reporting a migraine (10 mg): 0.49 | mean change from baseline in mean monthly migraine days (10 mg, weeks 1-4): −3.1 | mean change from baseline in mean monthly migraine days (10 mg, weeks 5-8): −3.7 | mean change from baseline in mean monthly migraine days (10 mg, weeks 9-12): −4.2 | 100% reduction in 3-month average of monthly migraine days, responder n (%) (30 mg QD): 11 (4.0) % | ≥25% reduction in 3-month average of monthly migraine days, responder n (%) (30 mg QD): 172 (77.1) % | ≥75 reduction in 3-month average of monthly migraine days, responder n (%) (30 mg QD): 66 (29.6) % | Change from baseline in mean monthly acute medication use days, LS mean change (SE) (30 mg QD): -3.68 days | Change from baseline in mean monthly headache days, LS mean change (SE) (30 mg QD): -4.04 days | Change from baseline in mean monthly migraine days, LS mean change (SE) (30 mg QD): -3.86 days | Mean monthly acute medication use days, LSMD vs. placebo (95% CI) (30 mg QD): -1.33 days | Mean monthly headache days, LSMD vs. placebo (95% CI) (30 mg QD): -1.53 days | Mean monthly migraine days, LSMD vs. placebo (95% CI) (30 mg QD): -1.38 days | ≥50% reduction in 3-month average of monthly migraine days, odds ratio vs. placebo (95% CI) (30 mg QD): 3.53 | ≥50% reduction in 3-month average of monthly migraine days, responder n (%) (30 mg QD): 58.7% | ≥50% reduction in 3-month average of monthly migraine days, responder n (%) (30 mg QD, listed as Atogepant): (58.7) % | decrease in mean monthly headache days (30 mg): 4.04 days | decrease in monthly migraine days (30 mg): 3.86 days | decrease in mean monthly acute medication use days (30 mg): 3.68 days | proportion of participants who reported a migraine day (30 mg): 10.8% | LS mean change from baseline in mean headache days (30 mg): −3.4 | LS mean reduction from baseline in mean cumulative headache hours (30 mg): -23.6 h | LS mean change from baseline in acute medication use days (30 mg): −3.4 | LS mean change from baseline in moderate/severe headache days (30 mg): −3.2 | Mean change from baseline in weekly migraine days (30 mg): −0.94 | odds ratio vs placebo for reporting a migraine (30 mg): 0.33 | mean change from baseline in mean monthly migraine days (30 mg, weeks 1-4): −3.4 | mean change from baseline in mean monthly migraine days (30 mg, weeks 5-8): −3.9 | mean change from baseline in mean monthly migraine days (30 mg, weeks 9-12): −4.3 | 100% reduction in 3-month average of monthly migraine days, responder n (%) (60 mg QD): 17 (7.7) % | ≥25% reduction in 3-month average of monthly migraine days, responder n (%) (60 mg QD): 180 (81.1) % | ≥75 reduction in 3-month average of monthly migraine days, responder n (%) (60 mg QD): 84 (37.8) % | Change from baseline in mean monthly acute medication use days, LS mean change (SE) (60 mg QD): -3.85 days | Change from baseline in mean monthly headache days, LS mean change (SE) (60 mg QD): -4.23 days | Change from baseline in mean monthly migraine days, LS mean change (SE) (60 mg QD): -4.20 days | Mean monthly acute medication use days, LSMD vs. placebo (95% CI) (60 mg QD): -1.50 days | Mean monthly headache days, LSMD vs. placebo (95% CI) (60 mg QD): -1.71 days | Mean monthly migraine days, LSMD vs. placebo (95% CI) (60 mg QD): -1.72 days | ≥50% reduction in 3-month average of monthly migraine days, odds ratio vs. placebo (95% CI) (60 mg QD): 3.82 | ≥50% reduction in 3-month average of monthly migraine days, responder n (%) (60 mg QD): 60.8% | ≥50% reduction in 3-month average of monthly migraine days, responder n (%) (60 mg QD, listed as Atogepant): (60.8) % | decrease in mean monthly headache days (60 mg): 4.23 days | decrease in monthly migraine days (60 mg): 4.20 days | decrease in mean monthly acute medication use days (60 mg): 3.85 days | proportion of participants who reported a migraine day (60 mg): 12.3% | LS mean change from baseline in mean headache days (60 mg): −3.8 | LS mean reduction from baseline in mean cumulative headache hours (60 mg): -25.1 h | LS mean change from baseline in acute medication use days (60 mg): −3.7 | LS mean change from baseline in moderate/severe headache days (60 mg): −3.8 | Mean change from baseline in weekly migraine days (60 mg): −1.03 | odds ratio vs placebo for reporting a migraine (60 mg): 0.39 | mean change from baseline in mean monthly migraine days (60 mg, weeks 1-4): −3.9 | mean change from baseline in mean monthly migraine days (60 mg, weeks 5-8): −4.2 | mean change from baseline in mean monthly migraine days (60 mg, weeks 9-12): −4.4 | times more likely than placebo to achieve ≥50% reduction in the 12-week average of MMDs (atogepant treated participants (all doses)): ≥ 3 times | participants with 100% reduction in MMDs across 12 weeks [1]: 5%-8% | participants with ≥25% reduction in MMDs across 12 weeks [1]: 73%-81% | participants with ≥50% reduction in mean MMDs across 12 weeks [1]: 56%-61% and 56-61% | participants with ≥75% reduction in MMDs across 12 weeks [1]: 30%-38%
